# Laboratory results reported in article doi:10.1101/530550v1 (biorxiv, 2019).
# Tested on: 2,5DHP dioxygenase (PicD)
# Assay: spectrophotometric […],5DHP disappearance at […] nm
# Format: biochemical, Alcaligenes faecalis
# Conditions: 1 mM Fe2+; 50 mM PBS pH 7.0; 25 °C
compound,measurement,value
"Oc1ccc(O)nc1 [2,5DHP, 2,5-dihydroxypyridine]",Km,65.7 ± 6.27 µM
